In patent US20240368181A1, “QUINOXALINE DERIVATIVES AND USES THEREOF” (Black Diamond Therapeutics, Inc., priority 2021, published 2024):

Legend:
Type in all cases: cell-based
[1] = tested on: DMS-114 (FGFR1 overexpression) cells; assay: cell proliferation assay (CellTiterGlo), DMS-114 cells; conditions: Homo sapiens, DMS-114, 72 h
Outline: (§1)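 Luminescent ATP read-out (CellTiterGlo) after exposure to compound at varying concentrations or DMSO vehicle. IC50 derived with vehicle-treated wells set as viable cells.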

[2] = tested on: UM-UC-14 (FGFR3-S249C) cells; assay: cell proliferation assay (CellTiterGlo), UM-UC-14 cells; conditions: UMUC14, 72 h
Outline: as §1

[3] = tested on: RT-112 (FGFR3-Tacc3 fusion) cells; assay: cell proliferation assay (CellTiterGlo), RT-112 cells; conditions: Homo sapiens, RT-112, RT112 cells, 72 hours
Outline: as §1

[4] = tested on: SNU-16 (FGFR2-amplification) cells; assay: cell proliferation assay (CellTiterGlo), SNU-16 cells; conditions: Homo sapiens, 72 hours
Outline: as §1

| IC50 [4] [µM] | Structure (SMILES) | IC50 [1] [µM] | IC50 [2] [µM] | IC50 [3] [µM] |
| --- | --- | --- | --- | --- |
| 0.1 to 0.4 | Cc1nc2ccc(Oc3ccc4ncc(-c5cnn(C6CN(C(F)(F)F)C6)c5)nc4c3Cl)cc2[nH]1 [Compound 200] | ≥ 0.4 | 0.1 to 0.4 | 0.1 to 0.4 |
| 0.02 to 0.1 | COC1CN([C@H]2C[C@@H](n3cc(-c4cnc5ccc(Oc6ccc7nc(C)[nH]c7c6)c(Cl)c5n4)cn3)C2)C1 [Compound 201] | ≥ 0.4 | 0.02 to 0.1 | 0.02 to 0.1 |
| 0.02 to 0.1 | COC1CN([C@H]2C[C@H](n3cc(-c4cnc5ccc(Oc6ccc7nc(C)[nH]c7c6)c(Cl)c5n4)cn3)C2)C1 [Compound 202] | ≥ 0.4 | 0.02 to 0.1 | 0.02 to 0.1 |
| 0.02 to 0.1 | Cc1nc2ccc(Oc3ccc4ncc(-c5cnn([C@H]6C[C@H](N7C[C@@H]8C[C@H]7CO8)C6)c5)nc4c3Cl)cc2[nH]1 [Compound 203] | ≥ 0.4 | 0.02 to 0.1 | 0.02 to 0.1 |
| 0.02 to 0.1 | Cc1nc2ccc(Oc3ccc4ncc(-c5cnn([C@H]6C[C@@H](N7C[C@@H]8C[C@H]7CO8)C6)c5)nc4c3Cl)cc2[nH]1 [Compound 204] | ≥ 0.4 | 0.02 to 0.1 | 0.02 to 0.1 |
| 0.1 to 0.4 | Cc1nc2ccc(Oc3ccc4ncc(-c5cnn(C6CC(F)(F)C6)c5)nc4c3Cl)cc2[nH]1 [Compound 205] | ≥ 0.4 | 0.1 to 0.4 | 0.1 to 0.4 |
| 0.02 to 0.1 | Cc1nc2ccc(Oc3ccc4ncc(-c5cnn([C@H]6C[C@H](N7C[C@H]8C[C@@H]7CO8)C6)c5)nc4c3Cl)cc2[nH]1 [Compound 206] | 0.1 to 0.4 | 0.02 to 0.1 | 0.02 to 0.1 |
| 0.02 to 0.1 | Cc1nc2ccc(Oc3ccc4ncc(-c5cnn([C@H]6C[C@@H](N7C[C@H]8C[C@@H]7CO8)C6)c5)nc4c3Cl)cc2[nH]1 [Compound 207] | 0.1 to 0.4 | 0.02 to 0.1 | 0.02 to 0.1 |
| 0.1 to 0.4 | Cc1nc2ccc(Oc3ccc4ncc(-c5cnn(CC(=O)NCC(C)(C)NC=O)c5)nc4c3Cl)cc2[nH]1 [Compound 208] | ≥ 0.4 | ≥ 0.4 | 0.1 to 0.4 |
| 0.1 to 0.4 | Cc1nc2ccc(Oc3ccc4ncc(-c5cnn(C(C)(C)C(=O)N6CCOCC6)c5)nc4c3Cl)cc2[nH]1 [Compound 209] | ≥ 0.4 | 0.1 to 0.4 | 0.02 to 0.1 |
| 0.1 to 0.4 | Cc1nc2ccc(Oc3ccc4ncc(-c5cnn(C(C)(C)C(=O)N6CC[C@@H](F)C6)c5)nc4c3Cl)cc2[nH]1 [Compound 210] | ≥ 0.4 | 0.1 to 0.4 | 0.02 to 0.1 |
| 0.1 to 0.4 | Cc1nc2ccc(Oc3ccc4ncc(-c5cnn(C6CCC(F)(F)C6)c5)nc4c3Cl)cc2[nH]1 (stereo not shown) [Compound 211] | ≥ 0.4 | 0.1 to 0.4 | 0.1 to 0.4 |
| 0.02 to 0.1 | Cc1nc2ccc(Oc3ccc4ncc(-c5cnn([C@H]6CCN(C7COC7)C[C@@H]6F)c5)nc4c3C)cc2[nH]1 [Compound 212] | 0.1 to 0.4 | 0.02 to 0.1 | 0.02 to 0.1 |
| 0.02 to 0.1 | Cc1nc2ccc(Oc3ccc4ncc(-c5cnn([C@H]6C[C@@H](N7CC(O)C7)C6)c5)nc4c3Cl)cc2[nH]1 [Compound 213] | 0.1 to 0.4 | 0.02 to 0.1 | 0.02 to 0.1 |
| 0.02 to 0.1 | Cc1nc2ccc(Oc3ccc4ncc(-c5cnn([C@H]6C[C@H](N7CC(O)C7)C6)c5)nc4c3Cl)cc2[nH]1 [Compound 214] | 0.1 to 0.4 | 0.02 to 0.1 | 0.02 to 0.1 |
| 0.02 to 0.1 | Cc1nc2ccc(Oc3ccc4ncc(-c5cnn(CCN6CCCC6=O)c5)nc4c3Cl)cc2[nH]1 [Compound 215] | ≥ 0.4 | 0.02 to 0.1 | 0.02 to 0.1 |
| 0.1 to 0.4 | Cc1nc2ccc(Oc3ccc4ncc(-c5cnn(CC6CC(F)(F)C6)c5)nc4c3C3CC3)cc2[nH]1 [Compound 216] | ≥ 0.4 | 0.1 to 0.4 | 0.1 to 0.4 |
| 0.02 to 0.1 | Cc1nc2ccc(Oc3ccc4ncc(-c5cnn(C6CN(CC7COC7)C6)c5)nc4c3Cl)cc2[nH]1 [Compound 217] | ≥ 0.4 | 0.02 to 0.1 | 0.02 to 0.1 |
| 0.02 to 0.1 | Cc1nc2ccc(Oc3ccc4ncc(-c5cnn(C6CC7(C6)CN(C6COC6)C7)c5)nc4c3Cl)cc2[nH]1 [Compound 218] | 0.1 to 0.4 | 0.02 to 0.1 | 0.02 to 0.1 |
| 0.1 to 0.4 | CCc1nc2cc(Oc3ccc4ncc(-c5cnn(CC6CC(F)(F)C6)c5)nc4c3Cl)ccc2[nH]1 [Compound 219] | ≥ 0.4 | 0.1 to 0.4 | 0.1 to 0.4 |
| 0.02 to 0.1 | Cc1nc2ccc(Oc3ccc4ncc(-c5cnn(C6CN(CC7(F)CC7)C6)c5)nc4c3Cl)cc2[nH]1 [Compound 220] | ≥ 0.4 | 0.02 to 0.1 | 0.02 to 0.1 |
| 0.02 to 0.1 | Cc1nc2ccc(Oc3ccc4ncc(-c5cnn(C6CN(CC(F)F)C6)c5)nc4c3Cl)cc2[nH]1 [Compound 221] | ≥ 0.4 | 0.02 to 0.1 | 0.02 to 0.1 |

| IC50 [4] [µM] | Structure (SMILES) | IC50 [1] [µM] | IC50 [2] [µM] | IC50 [3] [µM] |
| --- | --- | --- | --- | --- |
| ≥ 0.4 | Cc1nc2ccc(Oc3ccc4ncc(-c5cnn(C(OCc6ccccc6)C6CC6)c5)nc4c3Cl)cc2[nH]1 (stereo not shown) [Compound 222] | ≥ 0.4 | ≥ 0.4 | ≥ 0.4 |
| 0.02 to 0.1 | Cc1nc2ccc(Oc3ccc4ncc(-c5cnn(C6C7CCC6CNC7)c5)nc4c3Cl)cc2[nH]1 (stereo not shown) [Compound 223] | 0.1 to 0.4 | 0.02 to 0.1 | 0.02 to 0.1 |
| ≥ 0.4 | FC1(F)CC(Cn2cc(-c3cnc4ccc(Oc5ccc6[nH]c(C(F)(F)F)nc6c5)c(Cl)c4n3)cn2)C1 [Compound 224] | ≥ 0.4 | ≥ 0.4 | ≥ 0.4 |
| 0.02 to 0.1 | Cc1nc2ccc(Oc3ccc4ncc(-c5cnn(CCN6C[C@@H]7C[C@H]6CO7)c5)nc4c3Cl)cc2[nH]1 [Compound 225] | ≥ 0.4 | 0.02 to 0.1 | 0.02 to 0.1 |
| 0.1 to 0.4 | Cc1nc2ccc(Oc3ccc4ncc(-c5cnn(C6CN(CC(=O)N7CC(F)(F)C7)C6)c5)nc4c3Cl)cc2[nH]1 [Compound 226] | ≥ 0.4 | 0.02 to 0.1 | 0.02 to 0.1 |
| 0.02 to 0.1 | Cc1nc2ccc(Oc3ccc4ncc(-c5cnn(C6CN(C)C6)c5)nc4c3Cl)cc2[nH]1 [Compound 227] | ≥ 0.4 | 0.02 to 0.1 | 0.02 to 0.1 |
| 0.02 to 0.1 | Cc1nc2ccc(Oc3ccc4ncc(-c5cnn(CC6CS(=O)(=O)C6)c5)nc4c3Cl)cc2[nH]1 [Compound 228] | ≥ 0.4 | 0.02 to 0.1 | 0.02 to 0.1 |
| 0.02 to 0.1 | Cc1nc2c(F)c(Oc3ccc4ncc(-c5cnn(CC6CC(F)(F)C6)c5)nc4c3Cl)ccc2[nH]1 [Compound 229] | ≥ 0.4 | 0.02 to 0.1 | 0.02 to 0.1 |
| 0.02 to 0.1 | Cc1nc2ccc(Oc3ccc4ncc(-c5cnn(C6CN(C7CN(C)C7)C6)c5)nc4c3Cl)cc2[nH]1 [Compound 230] | ≥ 0.4 | 0.02 to 0.1 | 0.02 to 0.1 |
| 0.02 to 0.1 | C=C(C)c1c(Oc2ccc3nc(C)[nH]c3c2)ccc2ncc(-c3cnn(CC4CC(F)(F)C4)c3)nc12 [Compound 231] | ≥ 0.4 | 0.02 to 0.1 | 0.02 to 0.1 |
| 0.02 to 0.1 | Cc1nc2ccc(Oc3ccc4ncc(-c5cnn(C6CCN(C(=O)N7CCC7)CC6)c5)nc4c3Cl)cc2[nH]1 [Compound 232] | ≥ 0.4 | 0.02 to 0.1 | 0.02 to 0.1 |
| 0.02 to 0.1 | CC(=O)/C=C/N1CC[C@H](n2cc(-c3cnc4ccc(Oc5ccc6nc(C)[nH]c6c5)c(Cl)c4n3)cn2)[C@@H](F)C1 [Compound 233] | ≥ 0.4 | 0.02 to 0.1 | 0.02 to 0.1 |
| 0.02 to 0.1 | Cc1nc2ccc(Oc3ccc4ncc(-c5cnn(CCN6C[C@H]7C[C@@H]6CO7)c5)nc4c3Cl)cc2[nH]1 [Compound 234] | ≥ 0.4 | 0.02 to 0.1 | 0.02 to 0.1 |
| 0.02 to 0.1 | Cc1nc2ccc(Oc3ccc4ncc(-c5cnn(C6CN(CC(=O)N7CC(O)C7)C6)c5)nc4c3Cl)cc2[nH]1 [Compound 235] | ≥ 0.4 | 0.02 to 0.1 | 0.02 to 0.1 |
| 0.02 to 0.1 | Cc1nc2ccc(Oc3ccc4ncc(-c5cnn(C6CN(CC(=O)N7CCC7)C6)c5)nc4c3Cl)cc2[nH]1 [Compound 236] | ≥ 0.4 | 0.02 to 0.1 | 0.02 to 0.1 |
| 0.02 to 0.1 | Cc1nc2ccc(Oc3ccc4ncc(-c5cnn(C6CN(C7COC7)C6)c5)nc4c3Cl)cc2[nH]1 [Compound 237] | 0.1 to 0.4 | 0.02 to 0.1 | < 0.02 |
| 0.02 to 0.1 | Cc1nc2ccc(Oc3ccc4ncc(-c5cnn(C6CN(C7CCOCC7)C6)c5)nc4c3Cl)cc2[nH]1 [Compound 238] | 0.1 to 0.4 | 0.02 to 0.1 | 0.02 to 0.1 |
| ≥ 0.4 | Cc1nc2ccc(Oc3ccc4ncc(-c5cnn(CCN6CCC6)c5)nc4c3Cl)cc2[nH]1 [Compound 239] | ≥ 0.4 | ≥ 0.4 | ≥ 0.4 |
| 0.02 to 0.1 | Cc1nc2ccc(Oc3ccc4ncc(-c5cnn(CC6CCN(C)S(=O)(=O)C6)c5)nc4c3Cl)cc2[nH]1 (stereo not shown) [Compound 240] | 0.1 to 0.4 | 0.02 to 0.1 | 0.02 to 0.1 |
| 0.02 to 0.1 | Cc1nc2ccc(Oc3ccc4ncc(-c5cnn(CC6CC7CC6CO7)c5)nc4c3Cl)cc2[nH]1 (stereo not shown) [Compound 241] | 0.1 to 0.4 | 0.02 to 0.1 | < 0.02 |
| 0.02 to 0.1 | Cc1nc2ccc(Oc3ccc4ncc(-c5cnn(C6CC(=O)C6)c5)nc4c3Cl)cc2[nH]1 [Compound 242] | ≥ 0.4 | 0.02 to 0.1 | 0.02 to 0.1 |
